Values of other authors as cited in patent publication US20240398763A1, “ORAL DOSAGE FORM CONTAINING ONCOLOGICAL ACTIVE INGREDIENT” (OWP Pharmaceuticals, Inc., priority 2023, published 2024).
Values after ≈ are worked out from the molar mass of the structure shown. Where a name gives a salt, the structure may show the parent alone.

Settings: all pH solutions

| Solubility | SMILES |
| --- | --- |
| ~0.01 mg/mL (≈ 36.6 µM) | Nc1cccc2c1C(=O)N(C1CCC(=O)NC1=O)C2=O (centres unmarked) [pomalidomide] |

Same assay, conditions: approximate pH 5.0 and above

| Solubility | SMILES |
| --- | --- |
| (0.08 mg/mL or less) | CCOc1cc2ncc(C#N)c(Nc3ccc(OCc4ccccn4)c(Cl)c3)c2cc1NC(=O)/C=C/CN(C)C [neratinib] |

Same assay, conditions: aqueous media over the range pH 1.2 to pH 6.8

| Solubility | SMILES |
| --- | --- |
| is in excess of 25 mg/mL | CCN(CC)CCNC(=O)c1c(C)[nH]c(/C=C2\C(=O)Nc3ccc(F)cc32)c1C [sunitinib malate] |

Same assay, conditions: aqueous media, pH 1.99

| Solubility | SMILES |
| --- | --- |
| 0.880 mg/mL to | CO[C@]1(C(=O)N[C@@H](C)c2ccc(-n3cc(F)cn3)nc2)CC[C@H](c2nc(C)cc(Nc3cc(C)[nH]n3)n2)CC1 [pralsetinib] |

Same assay, conditions: aqueous media, pH 6.8

| Solubility | SMILES |
| --- | --- |
| 0.03 mg/mL (≈ 53.5 µM) | C=CC(=O)N1CCN(c2nc(=O)n(-c3c(C)ccnc3C(C)C)c3nc(-c4c(O)cccc4F)c(F)cc23)[C@@H](C)C1 [sotorasib] |

Same assay, conditions: aqueous media, pH 7.4

| Solubility | SMILES |
| --- | --- |
| to <0.010 mg/mL | C=C(F)C(=O)N1CCN(c2nc(OC[C@@H]3CCCN3C)nc3c2CCN(c2cccc4cccc(Cl)c24)C3)C[C@@H]1CC#N [adagrasib] |

Same assay, conditions: at 25° C.

| Solubility | SMILES |
| --- | --- |
| 6 mg/mL at 25 °C | CCCCCOC(=O)Nc1nc(=O)n([C@@H]2O[C@H](C)C(O)C2O)cc1F (stereo partly drawn) [capecitabine, pentyl ester [1-(5-deoxy-β-d-ribofuranosyl)-5-fluoro-1,2-dihydro-2-oxo-4-pyrimidinyl]-carbamic acid, reference compound] |
| solubility (0.5 mg/mL | CC(C)(C#N)c1cc(Cn2cncn2)cc(C(C)(C)C#N)c1 [anastrozole, α,α,α′,α′-tetramethyl-5-(1H-1,2,4-triazol-1-ylmethyl)-1,3-benzenediacetonitrile, reference compound] |

Same assay, conditions: at 37° C.

| Water solubility | SMILES |
| --- | --- |
| 37 °C is 0.63 mg/mL | CN(C)CCOc1ccc(/C(=C(/CCCl)c2ccccc2)c2ccccc2)cc1 [toremifene citrate] |

Same assay, conditions: at 37° C., in words

| Aqueous solubility | SMILES |
| --- | --- |
| freely soluble at pH 6.8) | O=C(Nc1cnn2ccc(N3CCC[C@@H]3c3cc(F)ccc3F)nc12)N1CC[C@H](O)C1 [larotrectinib] |

Same assay, conditions: condition not given

| Solubility | SMILES |
| --- | --- |
| 7 mg/mL (≈ 36100 µM) | Cn1nnc2c(C(N)=O)ncn2c1=O [temozolomide] |
| 22.5 mg/mL; unknown | Nc1ncn([C@H]2C[C@H](O)[C@@H](CO)O2)c(=O)n1 [decitabine] |
| 3 mg/mL | Nc1nc(F)nc2c1ncn2[C@@H]1O[C@H](COP(=O)(O)O)[C@@H](O)[C@@H]1O [fludarabine phosphate] |

The next lines start with the molecule.

| SMILES | Solubility |
| --- | --- |
| NC(=O)NO [hydroxyurea] | 15 mg/mL (≈ 197000 µM) |
| CS(=O)(=O)CCNCc1ccc(-c2ccc3ncnc(Nc4ccc(OCc5cccc(F)c5)c(Cl)c4)c3c2)o1 [lapatinib] | 0.007 mg/mL (≈ 12 µM) |

Same assay, conditions: in water / aqueous media, in words

| Solubility | SMILES |
| --- | --- |
| insoluble in water | Nc1cccc2c1CN(C1CCC(=O)NC1=O)C2=O (centres unmarked) [lenalidomide] |
| insoluble in water | COc1cc2ncnc(Nc3ccc(F)c(Cl)c3)c2cc1NC(=O)/C=C/CN1CCCCC1 [dacomitinib] |
| insoluble in water | CS(=O)(=O)c1ccc(Oc2cc(F)cc(C#N)c2)c2c1[C@H](O)[C@H](F)[C@@H]2F [belzutifan] |
| insoluble in water | Cc1nc(NC(=O)N2CCC[C@H]2C(N)=O)sc1-c1ccnc(C(C)(C)C(F)(F)F)c1 [alpelisib] |
| water soluble | CC[C@@]1(O)C(=O)OCc2c1cc1n(c2=O)Cc2cc3c(CN(C)C)c(O)ccc3nc2-1 [topotecan] |
| insoluble in water | Cc1nc(Nc2ncc(C(=O)Nc3c(C)cccc3Cl)s2)cc(N2CCN(CCO)CC2)n1 [dasatinib] |
| slightly soluble at pH 1, | COC(=O)N[C@@H](C)CNc1nccc(-c2cn(C(C)C)nc2-c2cc(Cl)cc(NS(C)(=O)=O)c2F)n1 [encorafenib] |
| insoluble in water | CN(Cc1cnc2nc(N)nc(N)c2n1)c1ccc(C(=O)N[C@@H](CCC(=O)O)C(=O)O)cc1 [methotrexate] |
| insoluble in water | CC(=O)O[C@]1(C(C)=O)CC[C@H]2[C@@H]3C[C@H](C)C4=CC(=O)CC[C@]4(C)[C@H]3CC[C@@]21C [medroxyprogesterone acetate] |
| Slightly soluble at pH 1, | Cn1cnc2c(F)c(Nc3ccc(Br)cc3F)c(C(=O)NOCCO)cc21 [binimetinib] |
| insoluble in water | C=CC(=O)Nc1cc(Nc2nccc(-c3cn(C)c4ccccc34)n2)c(OC)cc1N(C)CCN(C)C [osimertinib] |
| insoluble in water | C1=C/COCc2cc(ccc2OCCN2CCCC2)Nc2nccc(n2)-c2cccc(c2)COC/1 [pacritinib] |
| water soluble; water | O=c1[nH]c(=O)n([C@H]2C[C@H](O)[C@@H](CO)O2)cc1C(F)(F)F [trifluridine] |
| water soluble | Cc1nccn1CC1CCc2c(c3ccccc3n2C)C1=O (centres unmarked) [ondansetron hydrochloride] |
| slightly soluble in water | COc1cc2nccc(Oc3ccc(NC(=O)NC4CC4)c(Cl)c3)c2cc1C(N)=O [lenvatinib] |
| insoluble in water | Cc1ccc(Nc2nccc(N(C)c3ccc4c(C)n(C)nc4c3)n2)cc1S(N)(=O)=O [pazopanib] |
| water soluble | Nc1ncn([C@@H]2O[C@H](CO)[C@@H](O)[C@H]2O)c(=O)n1 [azacitidine] |
| water soluble; water | N=C1CCCN1Cc1[nH]c(=O)[nH]c(=O)c1Cl [tipiracil hydrochloride] |
| insoluble in water | CN(C)C(=O)c1cc2cnc(Nc3ccc(N4CCNCC4)cn3)nc2n1C1CCCC1 [ribociclib] |

Further lines, the molecule ahead of its results:

| SMILES | Solubility |
| --- | --- |
| COc1cc2nccc(Oc3ccc(NC(=O)Nc4cc(C)on4)c(Cl)c3)c2cc1OC [tivozanib] | insoluble in water |
| Cc1cc(Nc2ncnc3ccc(NC4=NC(C)(C)CO4)cc23)ccc1Oc1ccn2ncnc2c1 [tucatinib] | insoluble in water |
| O=P1(N(CCCl)CCCl)NCCCO1 (centres unmarked) [cyclophosphamide] | water soluble |
| Cn1ncnc1[C@H]1c2n[nH]c(=O)c3cc(F)cc(c23)N[C@@H]1c1ccc(F)cc1 [talazoparib tosylate] | insoluble in water |
| O=C(O)CCCc1ccc(N(CCCl)CCCl)cc1 [chlorambucil] | insoluble in water |
| CC(C)C(=O)Nc1ccc([N+](=O)[O-])c(C(F)(F)F)c1 [flutamide] | insoluble in water |
| O=C(/C=C\n1cnc(-c2cc(C(F)(F)F)cc(C(F)(F)F)c2)n1)NNc1cnccn1 [selinexor] | insoluble in water |
| CS(=O)(=O)OCCCCOS(C)(=O)=O [busulfan] | insoluble in water |
| CCN1CCN(Cc2ccc(Nc3ncc(F)c(-c4cc(F)c5nc(C)n(C(C)C)c5c4)n3)nc2)CC1 [abemaciclib] | insoluble in water |
| Cn1cc(-c2cc3c(N4CCN(c5ncc([C@@](C)(N)c6ccc(F)cc6)cn5)CC4)ncnn3c2)cn1 [avapritinib] | insoluble in water |
| C=CC(=O)N1CC[C@H](n2nc(C#Cc3cc(OC)cc(OC)c3)c3c(N)ncnc32)C1 [futibatinib] | insoluble in water |
| CCc1cc2c(cc1N1CCC(N3CCOCC3)CC1)C(C)(C)c1[nH]c3cc(C#N)ccc3c1C2=O [alectinib] | insoluble in water |
| Cc1cc(Nc2ncc(Cl)c(Nc3ccccc3S(=O)(=O)C(C)C)n2)c(OC(C)C)cc1C1CCNCC1 [ceritinib] | insoluble in water |
| CN1CCN(c2ccc(C(=O)Nc3n[nH]c4ccc(Cc5cc(F)cc(F)c5)cc34)c(NC3CCOCC3)c2)CC1 [entrectinib] | insoluble in water |
| CO[C@H]1C[C@@H]2CC[C@@H](C)[C@@](O)(O2)C(=O)C(=O)N2CCCC[C@H]2C(=O)O[C@H]([C@H](C)C[C@@H]2CC[C@@H](OCCO)[C@H](OC)C2)CC(=O)[C@H](C)/C=C(\C)[C@@H](O)[C@@H](OC)C(=O)[C@H](C)C[C@H](C)/C=C/C=C/C=C/1C [everolimus] | insoluble in water |
| CC1=C(/C=C/C(C)=C/C=C/C(C)=C/C(=O)O)C(C)(C)CCC1 [tretinoin] | insoluble in water |
| CN(C)C/C=C/C(=O)Nc1cc2c(Nc3ccc(F)c(Cl)c3)ncnc2cc1O[C@H]1CCOC1 [afatinib] | water soluble |
| O=C(c1cc(Cc2n[nH]c(=O)c3ccccc23)ccc1F)N1CCN(C(=O)C2CC2)CC1 [olaparib] | low solubility |
| C=C(c1ccc(C(=O)O)cc1)c1cc2c(cc1C)C(C)(C)CCC2(C)C [bexarotene] | insoluble in water |
| Sc1ncnc2nc[nH]c12 [mercaptopurine] | insoluble in water |
| COc1cc(N2CCC(N3CCN(C)CC3)CC2)ccc1Nc1ncc(Cl)c(Nc2ccccc2P(C)(C)=O)n1 [brigatinib] | insoluble in water |
| C[C@]12CC[C@@H]3c4ccc(OC(=O)N(CCCl)CCCl)cc4CC[C@H]3[C@@H]1CC[C@@H]2OP(=O)(O)O [estramustine phosphate] | water soluble |
| CO[C@@H]1[C@H](N(C)C(=O)c2ccccc2)C[C@H]2O[C@]1(C)n1c3ccccc3c3c4c(c5c6ccccc6n2c5c31)C(=O)NC4 [midostaurin] | insoluble in water |
| Clc1ccc(C(c2ccccc2Cl)C(Cl)Cl)cc1 (centres unmarked) [mitotane] | insoluble in water |
| O=C(Nc1ccc(OC(F)(F)Cl)cc1)c1cnc(N2CC[C@@H](O)C2)c(-c2ccn[nH]2)c1 [asciminib] | insoluble in water |

Same assay, conditions: in water at 25° C.

| Solubility | SMILES |
| --- | --- |
| 0.04 mg per mL in | CONC(=O)Nc1ccc(-c2sc3c(c2CN(C)C)c(=O)n(-c2ccc(OC)nn2)c(=O)n3Cc2c(F)cccc2F)cc1 [relugolix] |

Same assay, conditions: pH 1

| Solubility | SMILES |
| --- | --- |
| condition (>100 mg/mL | Cc1cnc(Nc2ccc(OCCN3CCCC3)cc2)nc1Nc1cccc(S(=O)(=O)NC(C)(C)C)c1 [fedratinib] |
| 0.99 mg/mL at pH 1 | CS(=O)(=O)c1ccc(C(=O)Nc2ccc(Cl)c(-c3ccccn3)c2)c(Cl)c1 [vismodegib] |

Same assay, conditions: pH 1.0 solution at 37° C.

| Solubility | SMILES |
| --- | --- |
| solubility of 152 mg/mL | C=CC(=O)Nc1cc(Nc2ncc(C(=O)OC(C)C)c(-c3cn(C)c4ccccc34)n2)c(OC)cc1N(C)CCN(C)C [mobocertinib] |

Same assay, conditions: pH 1.2

| Solubility | SMILES |
| --- | --- |
| 1.2 (32.90 mg/mL) and | CCOc1cc2ncc(C#N)c(Nc3ccc(OCc4ccccn4)c(Cl)c3)c2cc1NC(=O)/C=C/CN(C)C [neratinib] |
| from >262 mg/mL | C=C(F)C(=O)N1CCN(c2nc(OC[C@@H]3CCCN3C)nc3c2CCN(c2cccc4cccc(Cl)c24)C3)C[C@@H]1CC#N [adagrasib] |

Same assay, conditions: pH 1.6

| Solubility | SMILES |
| --- | --- |
| greater than 10 mg/mL | C[C@@H](Oc1cc(-c2cnn(C3CCNCC3)c2)cnc1N)c1c(Cl)ccc(F)c1Cl [crizotinib] |

Same assay, conditions: pH 7

| Solubility | SMILES |
| --- | --- |
| 0.1 μg/mL at pH 7 and | CS(=O)(=O)c1ccc(C(=O)Nc2ccc(Cl)c(-c3ccccn3)c2)c(Cl)c1 [vismodegib] |

Same assay, conditions: pH 7.4

| Solubility | SMILES |
| --- | --- |
| (4 mcg/mL at pH 7.4) | Cc1cnc(Nc2ccc(OCCN3CCCC3)cc2)nc1Nc1cccc(S(=O)(=O)NC(C)(C)C)c1 [fedratinib] |
